Laboratory results published in ChEMBL document CHEMBL1201862, “PubChem BioAssay data set” (2004).
Blank lines part the entries; values can stand above or below the molecule they belong to. Calls of active or inactive are those of the source.

Experiments:
[1] = target: Sphingosine 1-phosphate receptor 2 (Homo sapiens, UniProt O95136); experiment: Dose Response Cell Based Assay for Agonists of the S1P2 Receptor of Purchased Analogues. [Related pubchem assays: 729, 843, 854, 736 ]; format: functional
[2] = target: Lytic switch protein BZLF1 (Epstein-Barr virus (strain B95-8) (HHV-4) (Human herpesvirus 4), UniProt P03206); experiment: EBV ZTA inhibitors, dose response, counter-screen for EBNA-1 inhibitor project, biochemical, fluorescence polarization, Epstein-Barr virus, 1536-well (AID 2377); set-up: species or system human gammaherpesvirus 4;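 note: fluorescence polarization of Cy5-labelled ZRE DNA probe bound by purified Zta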
[3] = target: Epstein-Barr nuclear antigen 1 (Epstein-Barr virus (strain B95-8) (HHV-4) (Human herpesvirus 4), UniProt P03211); experiment: EBNA-1 inhibitors, dose response, biochemical, fluorescence polarization, 1536-well (AID 2381); set-up: species or system human gammaherpesvirus 4;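 note: fluorescence polarization of a Cy5 DNA probe bound by EBNA-1 protein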
[4] = cytotoxicity toward NIH3T3 fibroblasts, dose response, counter-screen, cell-based, ATP luminescence, mouse fibroblasts (AID 2010); format: functional;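 note: cells exposed to compound for about 90 hours before reading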
[5] = inhibitors of intracellular T. cruzi replication, confirmation, NIH3T3 host cells, beta-gal luminescence (AID 2044); format: functional, cell-based;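 note: intracellular parasites grown in NIH/3T3 mouse fibroblasts as host cells; luminescent beta-galactosidase reporter signal from transgenic T. cruzi replicating inside host cells; inhibitors lower the luminescence signal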
[6] = inhibitors of Vif binding to APOBEC3G peptide, primary screen, biochemical, TR-FRET, GST-Vif 1-94, biotin-A3G peptide, dose response retest (AID 1117319); format: functional;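 note: TR-FRET signal of purified GST-Vif binding a biotinylated A3G peptide; inhibitors lower the FRET signal by blocking Vif and A3G binding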
NADPH oxidase 1 = NADPH oxidase 1 (Homo sapiens, UniProt Q9Y5S8); experiment: Luminescence-based cell-based dose response assay to identify inhibitors of NADPH oxidase 1 (NOX1).; format: functional
Large T antigen = Large T antigen (Simian virus 40, UniProt P03070); format: functional, Betapolyomavirus macacae;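 note: Confirmatory-stage PubChem screen for compounds that inhibit SV40 T antigen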
[7] = target: Alkaline phosphatase, placental type (Homo sapiens, UniProt P05187); experiment: PLAP enzyme inhibitors, confirmation, biochemical, luminescence (AID 1512); format: functional
Bcl-2-like protein 1 = Bcl-2-like protein 1 (Homo sapiens, UniProt Q07817); experiment: BCL-XL inhibitors, dose response, selectivity assay for MCL1 inhibitor project, biochemical, fluorescence polarization, 1536-well (AID 2218)
[8] = target: T1, Alkaline phosphatase, tissue-nonspecific isozyme (Homo sapiens, UniProt P05186); experiment: human TNAP enzyme inhibitors, SAR follow-up, biochemical, luminescent, dose response (AID 1056)
T1 sequence (P05186 whole entry): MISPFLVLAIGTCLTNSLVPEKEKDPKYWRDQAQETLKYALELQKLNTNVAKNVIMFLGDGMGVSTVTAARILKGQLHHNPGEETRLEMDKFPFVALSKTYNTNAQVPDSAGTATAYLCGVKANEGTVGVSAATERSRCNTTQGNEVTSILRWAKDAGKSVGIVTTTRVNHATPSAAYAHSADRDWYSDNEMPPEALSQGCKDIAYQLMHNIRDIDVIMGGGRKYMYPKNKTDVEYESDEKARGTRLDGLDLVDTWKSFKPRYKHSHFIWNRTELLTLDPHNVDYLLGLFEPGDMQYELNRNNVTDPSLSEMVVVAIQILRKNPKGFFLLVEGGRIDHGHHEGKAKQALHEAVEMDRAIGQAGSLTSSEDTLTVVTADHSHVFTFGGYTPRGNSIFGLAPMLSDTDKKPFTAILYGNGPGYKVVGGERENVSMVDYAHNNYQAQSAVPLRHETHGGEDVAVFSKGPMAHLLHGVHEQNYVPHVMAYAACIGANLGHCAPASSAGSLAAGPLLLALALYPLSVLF

[9] = target: Induced myeloid leukemia cell differentiation protein Mcl-1 (Homo sapiens, UniProt Q07820); experiment: MCL1-BIM BH3 interaction inhibitors, dose response, biochemical, fluorescence polarization, BIM-BH3 peptide, 1536-well (AID 2217)
[10] = target: T2, Histone-lysine N-methyltransferase NSD2 (Homo sapiens, UniProt O96028); format: biochemical
T2 sequence (O96028 whole entry): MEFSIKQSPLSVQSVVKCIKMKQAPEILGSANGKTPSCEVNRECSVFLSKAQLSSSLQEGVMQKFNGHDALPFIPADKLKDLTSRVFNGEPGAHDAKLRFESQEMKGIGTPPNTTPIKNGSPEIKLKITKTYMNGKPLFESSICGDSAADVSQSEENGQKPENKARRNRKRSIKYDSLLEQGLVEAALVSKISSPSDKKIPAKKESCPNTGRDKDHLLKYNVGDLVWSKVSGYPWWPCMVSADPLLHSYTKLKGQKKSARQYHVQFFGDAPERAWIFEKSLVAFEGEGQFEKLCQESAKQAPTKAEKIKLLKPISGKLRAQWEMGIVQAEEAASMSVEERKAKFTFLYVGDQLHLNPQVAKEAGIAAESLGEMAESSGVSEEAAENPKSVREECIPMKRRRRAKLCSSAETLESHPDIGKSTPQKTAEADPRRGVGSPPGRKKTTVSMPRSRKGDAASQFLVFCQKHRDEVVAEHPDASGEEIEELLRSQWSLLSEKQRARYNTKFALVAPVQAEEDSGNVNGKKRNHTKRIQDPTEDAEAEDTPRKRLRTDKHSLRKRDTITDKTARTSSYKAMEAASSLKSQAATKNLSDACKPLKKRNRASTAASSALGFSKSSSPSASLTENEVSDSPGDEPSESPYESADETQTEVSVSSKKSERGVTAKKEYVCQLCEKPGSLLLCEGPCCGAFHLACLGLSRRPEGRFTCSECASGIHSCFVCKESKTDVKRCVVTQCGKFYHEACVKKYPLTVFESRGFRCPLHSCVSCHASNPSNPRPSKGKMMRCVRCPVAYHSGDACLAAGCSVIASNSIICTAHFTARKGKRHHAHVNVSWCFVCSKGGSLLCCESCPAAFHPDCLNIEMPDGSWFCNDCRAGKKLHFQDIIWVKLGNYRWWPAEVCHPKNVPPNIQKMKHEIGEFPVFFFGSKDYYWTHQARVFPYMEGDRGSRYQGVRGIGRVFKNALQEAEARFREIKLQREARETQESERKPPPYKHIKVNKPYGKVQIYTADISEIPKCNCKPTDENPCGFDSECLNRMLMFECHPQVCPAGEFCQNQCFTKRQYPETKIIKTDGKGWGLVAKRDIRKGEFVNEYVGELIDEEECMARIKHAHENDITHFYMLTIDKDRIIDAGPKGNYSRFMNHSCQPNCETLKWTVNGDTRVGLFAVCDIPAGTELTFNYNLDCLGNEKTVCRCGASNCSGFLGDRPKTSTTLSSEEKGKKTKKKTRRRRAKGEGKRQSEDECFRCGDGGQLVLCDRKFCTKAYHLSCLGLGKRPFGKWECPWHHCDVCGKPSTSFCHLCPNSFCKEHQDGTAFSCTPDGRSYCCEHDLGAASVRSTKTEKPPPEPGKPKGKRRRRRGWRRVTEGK

[11] = target: Heat shock protein HSP 90-alpha (Homo sapiens, UniProt P07900); format: functional, organism-based
[12] = human group III sPLA2 inhibitors, dose response, biochemical, QFRET, IC50 (AID 743457);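 note: green fluorescence rise as the enzyme cleaves BODIPY PC-A2 in liposomes; potency for inhibition of the enzyme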
[13] = target: T3, Mannose-6-phosphate isomerase (Homo sapiens, UniProt P34949); experiment: human PMI inhibitors, high substrate, primary screen, biochemical, fluorescence intensity, high mannose 6-phosphate (AID 1220)
T3 sequence (P34949 whole entry): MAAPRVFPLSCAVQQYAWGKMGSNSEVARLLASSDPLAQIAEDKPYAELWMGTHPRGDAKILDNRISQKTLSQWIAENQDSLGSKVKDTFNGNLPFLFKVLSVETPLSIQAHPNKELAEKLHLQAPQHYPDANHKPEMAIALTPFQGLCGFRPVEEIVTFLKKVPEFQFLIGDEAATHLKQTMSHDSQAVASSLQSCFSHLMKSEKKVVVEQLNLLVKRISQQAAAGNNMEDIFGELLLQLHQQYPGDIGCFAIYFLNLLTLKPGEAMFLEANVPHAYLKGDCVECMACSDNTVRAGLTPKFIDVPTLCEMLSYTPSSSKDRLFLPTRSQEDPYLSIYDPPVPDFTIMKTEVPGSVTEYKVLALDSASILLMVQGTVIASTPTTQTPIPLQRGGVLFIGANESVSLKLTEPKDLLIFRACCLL

[14] = target: T4, Neuropeptide Y receptor type 2 (Homo sapiens, UniProt P49146); experiment: Fluorescence-based counterscreen for agonists of NPY-Y1: cell-based high-throughput dose response assay for agonists of NPY-Y2.; format: functional
T4 sequence (P49146 whole entry): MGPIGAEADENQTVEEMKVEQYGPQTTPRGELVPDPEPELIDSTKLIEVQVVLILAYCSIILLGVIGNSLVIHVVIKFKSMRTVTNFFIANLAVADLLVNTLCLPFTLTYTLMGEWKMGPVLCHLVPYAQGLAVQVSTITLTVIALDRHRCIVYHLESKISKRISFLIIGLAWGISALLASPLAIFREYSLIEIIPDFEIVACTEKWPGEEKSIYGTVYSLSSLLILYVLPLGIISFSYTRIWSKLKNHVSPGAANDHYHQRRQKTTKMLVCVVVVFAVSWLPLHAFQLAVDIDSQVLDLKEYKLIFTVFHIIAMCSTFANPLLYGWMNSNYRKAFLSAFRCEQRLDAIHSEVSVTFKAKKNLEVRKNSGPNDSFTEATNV

[15] = ADAM10 protease inhibitors, dose response, selectivity assay for ADAM17 exosite inhibitor project, biochemical, FRET peptide substrate, recombinant human ADAM10 (AID 743259);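 note: ADAM10 enzyme cleaving a FRET peptide substrate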
[16] = target: T5, Neuropeptide Y receptor type 1 (Homo sapiens, UniProt P25929); experiment: Fluorescence-based dose response cell-based high-throughput screening assay for potentiators or agonists of NPY-Y1.; format: functional
T5 sequence (P25929 whole entry): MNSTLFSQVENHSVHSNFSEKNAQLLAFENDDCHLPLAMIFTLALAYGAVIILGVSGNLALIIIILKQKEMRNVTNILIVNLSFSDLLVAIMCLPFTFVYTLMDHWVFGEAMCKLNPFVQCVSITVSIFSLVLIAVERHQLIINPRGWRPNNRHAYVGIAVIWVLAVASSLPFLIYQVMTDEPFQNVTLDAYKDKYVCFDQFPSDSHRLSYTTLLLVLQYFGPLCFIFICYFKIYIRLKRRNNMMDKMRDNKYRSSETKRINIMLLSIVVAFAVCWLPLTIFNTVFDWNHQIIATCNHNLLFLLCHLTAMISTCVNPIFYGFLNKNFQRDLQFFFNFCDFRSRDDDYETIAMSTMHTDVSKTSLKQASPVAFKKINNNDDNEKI

HEK293 = experiment: Fluorescence-based counterscreen for potentiators or agonists of NPY-Y1: cell-based high-throughput dose response assay for inhibitors of cyclic nucleotide gated ion channel (CNGC) activity. In this assay, the parental HEK293 cell line transfected with a cyclic-nucleotide gated ion channel (CNGC)-based cAMP sensor is used to measure inhibition of isoproterenol-induced CNGC …; format: functional; conditions: Homo sapiens
[17] = target: T5, Neuropeptide Y receptor type 1; experiment: Fluorescence-based dose response cell-based high-throughput screening assay for agonists of NPY-Y1. [Related pubchem assays: 1697 (Screening assay (NPY-Y1 agonists).), 1359 (Screening assay (NPY-Y2 potentiators or agonists).), 1304 (Screening assay (NPY-Y1 potentiators or agonists).), 1704 (Screening assay (CNGC inhibitors).), 1791 (Summary AID.)]; format: functional
[18] = target: Disintegrin and metalloproteinase domain-containing protein 17 (Homo sapiens, UniProt P78536); experiment: exosite inhibitors of ADAM17, dose response, biochemical (AID 743260)
[19] = target: T4, Neuropeptide Y receptor type 2; experiment: Fluorescence counterscreen for potentiators or agonists of NPY-Y1: Cell-based high-throughput dose response assay for potentiators or agonists of NPY-Y2.; format: functional

Chain of Sphingosine 1-phosphate receptor 2 (O95136 whole entry): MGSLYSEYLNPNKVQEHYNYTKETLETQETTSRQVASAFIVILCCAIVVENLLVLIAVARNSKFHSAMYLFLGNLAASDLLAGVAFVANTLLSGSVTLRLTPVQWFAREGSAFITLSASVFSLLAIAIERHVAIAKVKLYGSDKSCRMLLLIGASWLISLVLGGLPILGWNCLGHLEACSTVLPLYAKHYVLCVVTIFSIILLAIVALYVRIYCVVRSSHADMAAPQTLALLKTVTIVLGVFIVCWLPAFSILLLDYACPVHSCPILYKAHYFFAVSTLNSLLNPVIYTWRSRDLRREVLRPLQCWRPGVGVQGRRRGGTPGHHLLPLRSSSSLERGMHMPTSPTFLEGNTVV
Chain of Bcl-2-like protein 1 (Q07817 whole entry): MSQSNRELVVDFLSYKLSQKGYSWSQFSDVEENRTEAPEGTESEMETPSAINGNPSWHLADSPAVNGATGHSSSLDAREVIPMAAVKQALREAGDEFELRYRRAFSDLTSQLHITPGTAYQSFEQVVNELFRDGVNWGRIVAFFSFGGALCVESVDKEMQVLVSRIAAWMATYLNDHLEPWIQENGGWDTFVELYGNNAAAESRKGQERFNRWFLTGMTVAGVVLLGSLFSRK
Chain of NADPH oxidase 1 (Q9Y5S8 whole entry): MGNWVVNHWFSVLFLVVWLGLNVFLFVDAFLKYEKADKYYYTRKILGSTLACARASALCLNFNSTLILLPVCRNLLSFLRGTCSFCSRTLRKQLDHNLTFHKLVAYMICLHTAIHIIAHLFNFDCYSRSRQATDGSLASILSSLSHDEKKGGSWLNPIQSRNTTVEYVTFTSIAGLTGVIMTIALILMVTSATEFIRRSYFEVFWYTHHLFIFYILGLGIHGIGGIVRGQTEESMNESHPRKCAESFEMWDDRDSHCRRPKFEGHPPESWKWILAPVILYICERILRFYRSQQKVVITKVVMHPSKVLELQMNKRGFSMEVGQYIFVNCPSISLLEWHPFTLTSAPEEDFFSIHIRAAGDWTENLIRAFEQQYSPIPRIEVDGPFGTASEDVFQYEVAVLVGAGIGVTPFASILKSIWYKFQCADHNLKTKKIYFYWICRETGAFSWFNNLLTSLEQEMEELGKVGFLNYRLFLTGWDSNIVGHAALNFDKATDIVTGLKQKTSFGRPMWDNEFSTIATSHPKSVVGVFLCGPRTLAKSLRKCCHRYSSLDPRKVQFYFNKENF
Chain of Disintegrin and metalloproteinase domain-containing protein 17 (P78536 whole entry, the tested form may be a part): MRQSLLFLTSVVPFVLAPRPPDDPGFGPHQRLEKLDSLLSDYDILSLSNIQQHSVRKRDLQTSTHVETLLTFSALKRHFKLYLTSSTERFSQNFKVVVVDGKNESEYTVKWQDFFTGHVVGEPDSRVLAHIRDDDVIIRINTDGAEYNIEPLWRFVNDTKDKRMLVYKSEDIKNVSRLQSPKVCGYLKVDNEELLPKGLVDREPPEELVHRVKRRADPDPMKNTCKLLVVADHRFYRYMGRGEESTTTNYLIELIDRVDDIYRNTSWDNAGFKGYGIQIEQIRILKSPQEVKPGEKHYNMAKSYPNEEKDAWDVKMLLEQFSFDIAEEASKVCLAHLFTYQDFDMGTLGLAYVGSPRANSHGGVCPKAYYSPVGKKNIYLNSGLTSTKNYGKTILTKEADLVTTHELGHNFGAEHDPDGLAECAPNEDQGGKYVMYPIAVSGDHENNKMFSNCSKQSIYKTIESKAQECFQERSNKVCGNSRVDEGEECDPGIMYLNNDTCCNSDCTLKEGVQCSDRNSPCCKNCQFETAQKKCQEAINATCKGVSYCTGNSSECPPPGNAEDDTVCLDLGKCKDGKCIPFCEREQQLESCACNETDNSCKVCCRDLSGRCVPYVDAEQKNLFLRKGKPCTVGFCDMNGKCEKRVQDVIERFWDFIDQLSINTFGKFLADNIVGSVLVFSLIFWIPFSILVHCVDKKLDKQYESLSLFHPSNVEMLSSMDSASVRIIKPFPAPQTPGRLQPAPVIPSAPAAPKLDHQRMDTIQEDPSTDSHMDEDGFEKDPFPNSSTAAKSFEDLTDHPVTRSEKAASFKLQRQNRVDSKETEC
Chain of Alkaline phosphatase, placental type (P05187 whole entry): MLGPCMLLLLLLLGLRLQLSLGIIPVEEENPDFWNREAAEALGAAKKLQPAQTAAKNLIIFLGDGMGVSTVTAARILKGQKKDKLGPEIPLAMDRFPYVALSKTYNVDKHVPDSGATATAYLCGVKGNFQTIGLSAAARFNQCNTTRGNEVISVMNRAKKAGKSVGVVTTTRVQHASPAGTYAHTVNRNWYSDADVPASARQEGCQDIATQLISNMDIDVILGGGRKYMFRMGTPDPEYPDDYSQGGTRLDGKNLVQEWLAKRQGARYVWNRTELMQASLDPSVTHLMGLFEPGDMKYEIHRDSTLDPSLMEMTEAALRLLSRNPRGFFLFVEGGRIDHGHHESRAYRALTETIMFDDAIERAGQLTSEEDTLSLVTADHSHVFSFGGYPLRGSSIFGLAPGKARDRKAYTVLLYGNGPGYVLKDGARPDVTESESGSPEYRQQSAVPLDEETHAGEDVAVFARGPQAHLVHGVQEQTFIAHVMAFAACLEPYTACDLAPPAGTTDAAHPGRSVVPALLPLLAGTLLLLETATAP
Chain of Large T antigen (P03070 whole entry): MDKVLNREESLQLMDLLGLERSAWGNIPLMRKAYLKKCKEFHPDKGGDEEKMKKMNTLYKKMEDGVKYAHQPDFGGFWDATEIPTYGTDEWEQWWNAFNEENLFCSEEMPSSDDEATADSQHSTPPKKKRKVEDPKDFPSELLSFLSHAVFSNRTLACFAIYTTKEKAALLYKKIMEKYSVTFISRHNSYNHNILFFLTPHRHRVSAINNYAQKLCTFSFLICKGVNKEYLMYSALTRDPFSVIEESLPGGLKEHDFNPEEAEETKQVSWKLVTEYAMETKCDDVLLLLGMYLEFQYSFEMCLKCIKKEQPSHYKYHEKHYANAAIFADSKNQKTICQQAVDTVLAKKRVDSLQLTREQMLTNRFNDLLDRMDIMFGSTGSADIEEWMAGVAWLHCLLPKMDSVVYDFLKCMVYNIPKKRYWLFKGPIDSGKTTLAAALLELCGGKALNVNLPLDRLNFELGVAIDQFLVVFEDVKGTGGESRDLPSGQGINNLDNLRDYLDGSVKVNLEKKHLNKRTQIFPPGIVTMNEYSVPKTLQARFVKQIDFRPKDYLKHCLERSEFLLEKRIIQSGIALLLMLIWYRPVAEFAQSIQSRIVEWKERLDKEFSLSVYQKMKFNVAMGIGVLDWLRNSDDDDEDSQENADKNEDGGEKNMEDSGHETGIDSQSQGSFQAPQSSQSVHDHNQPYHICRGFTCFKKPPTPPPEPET
Chain of Lytic switch protein BZLF1 (P03206 whole entry): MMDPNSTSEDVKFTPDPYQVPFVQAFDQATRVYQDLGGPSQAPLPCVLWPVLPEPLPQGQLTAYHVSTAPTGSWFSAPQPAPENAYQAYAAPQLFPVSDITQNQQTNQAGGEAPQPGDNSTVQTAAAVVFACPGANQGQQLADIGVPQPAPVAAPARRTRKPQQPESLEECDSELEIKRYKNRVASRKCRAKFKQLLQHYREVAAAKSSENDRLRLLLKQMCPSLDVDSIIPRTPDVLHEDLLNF
Chain of Induced myeloid leukemia cell differentiation protein Mcl-1 (Q07820 whole entry): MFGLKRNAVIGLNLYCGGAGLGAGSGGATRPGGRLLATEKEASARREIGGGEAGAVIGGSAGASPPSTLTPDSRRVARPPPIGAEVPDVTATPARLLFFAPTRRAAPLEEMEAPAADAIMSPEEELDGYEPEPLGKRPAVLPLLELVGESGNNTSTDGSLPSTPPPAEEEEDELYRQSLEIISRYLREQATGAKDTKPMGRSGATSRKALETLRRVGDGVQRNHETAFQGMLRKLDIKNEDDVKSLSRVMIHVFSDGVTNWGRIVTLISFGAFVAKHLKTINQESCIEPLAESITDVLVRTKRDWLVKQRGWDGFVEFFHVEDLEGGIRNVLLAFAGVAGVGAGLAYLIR
Chain of Epstein-Barr nuclear antigen 1 (P03211 whole entry): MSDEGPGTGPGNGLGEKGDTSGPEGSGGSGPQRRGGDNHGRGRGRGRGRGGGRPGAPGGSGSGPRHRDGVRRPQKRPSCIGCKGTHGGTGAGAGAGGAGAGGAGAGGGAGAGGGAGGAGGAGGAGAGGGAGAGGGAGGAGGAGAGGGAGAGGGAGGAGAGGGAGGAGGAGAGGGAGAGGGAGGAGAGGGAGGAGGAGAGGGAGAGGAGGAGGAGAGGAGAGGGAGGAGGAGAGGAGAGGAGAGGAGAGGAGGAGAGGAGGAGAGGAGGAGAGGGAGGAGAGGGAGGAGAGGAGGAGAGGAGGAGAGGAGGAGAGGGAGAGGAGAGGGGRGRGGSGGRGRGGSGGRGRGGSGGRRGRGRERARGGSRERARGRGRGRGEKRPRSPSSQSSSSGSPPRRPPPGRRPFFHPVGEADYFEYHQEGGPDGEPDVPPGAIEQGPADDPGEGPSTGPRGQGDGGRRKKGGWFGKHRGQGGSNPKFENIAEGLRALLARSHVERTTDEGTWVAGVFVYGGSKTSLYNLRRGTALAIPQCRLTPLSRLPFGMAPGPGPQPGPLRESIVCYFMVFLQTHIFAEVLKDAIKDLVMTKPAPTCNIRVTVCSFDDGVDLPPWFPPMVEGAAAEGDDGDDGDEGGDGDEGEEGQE

- EC50 [1]: > 30 µM (not active)
SMILES: Cc1cc(C(=O)COC(=O)C2CCC2)c(C)n1Cc1ccccc1

- IC50 [2]: > 111 µM (not active)
- IC50 [3]: 16.1 µM (not active)
SMILES: c1ccc(-c2ccc(C3=Nn4c(nnc4-c4cc(-c5ccccc5)[nH]n4)SC3)cc2)cc1

- IC50 (Large T antigen): 14.5 µM (active)
- IC50 [7]: 2.92 µM (active)
- IC50 (Bcl-2-like protein 1): > 109 µM (not active)
- IC50 [8]: 22.2 µM (active)
- IC50 [9]: 9.37 µM (active)
- AC50 [10]: 4.18 µM (active)
SMILES: C=CCn1c(SCC(=O)c2ccc(O)c(O)c2)nnc1-c1cccnc1

Second part, the molecule before the results:

SMILES: CC(C)Cc1ccc(CN2CCCC(NC(=O)CSc3nncn3C)C2)cc1 (centres undefined)
- EC50 [4]: > 60 µM (not active)
- EC50 (cells): 0.071 µM (active)
- EC50 [5]: < 0.1 µM (active)

SMILES: CN(C)c1ccc(NC(=O)Nc2cccc(Cl)c2)cc1
- IC50 [6]: > 51.6 µM (active)
- IC50 (NADPH oxidase 1): 0.048 µM (active)

SMILES: CC(C)/N=c1\scc(-c2cccs2)n1/N=C/c1ccc(O)c(O)c1O
- AC50 [11]: 3.46 µM (active)
- IC50 [12]: 41.3 µM (inactive)
- IC50 [13]: > 50 µM (not active)
- EC50 [14]: 24.3 µM (not active)
- IC50 [15]: 12.8 µM (inactive)
- EC50 [16]: > 35.4 µM (not active)
- IC50 (HEK293): > 35.4 µM (not active)
- EC50 [17]: > 3.94 µM (active)
- IC50 [18]: 31.2 µM (inactive)
- EC50 [19]: 22 µM (not active)
